According to patent US10017584B2, “6-deoxy-6-thioether-amino acid cyclodextrin derivative and preparation method thereof” (Hangzhou Adamerck Pharmlabs Inc., priority 2010, dated 2018):
Where two headings read alike, the source gives them in different places.

Columns and labels:
small mice [1] = assay: Toxic reactions after intravenous tail injection in male small mice; settings: intravenous injection at the tail, 200 mg/ml, 4000 mg/kg
Source text: (§1) Male small mice are processed with intravenous injection with compounds of the present invention at the tails.

small mice [2] = settings: mouse, in vivo, iv, 4000 mg/kg
Source text: as §1

[3] = system: muscular relaxation induced by rocuronium bromide; assay: Reversal of rocuronium bromide induced muscular relaxation in anaesthetised Guinea pigs (TOF-Watch SX monitor); type: in vivo, Guinea pig
Source text: After pentobarbital sodium anesthesia in the abdominal cavity, the Guinea pigs are fixed on rat boards and connected to small animal ventilators after endotracheal intubation. Stimulating electrodes of a muscular relaxation monitor, TOF-Watch SX, are respectively connected to left post-femur and post-tibialis subcutis of the Guinea pig. Self-made tools are used to fix the left tibialis on a small platform while permitting the left hind paw to be able to move freely. A sensor is fixed on a palm surface of a left hind leg of the Guinea pig and a probe of skin temperature is fixed on a palm surface of a left front leg of the Guinea pig.

small mice [4] = settings: according to reports; cited from earlier work
[5] = Guinea pig, compound 2 mg/kg given when TOFR disappears and T1 decreases more than 80%, after i.v. rocuronium bromide (twice ED90 dose)
[6] = guinea pig, in vivo, iv, 2 mg/kg

| Molecule | result description (toxic reactions) (small mice [1]) | T1 recovering to 25%/time [3, 6] | T1 recovering to 50%/time [3, 6] | T1 recovering to 75%/time [3, 6] | TOF recovering to 50%/time [3, 6] | TOF recovering to 75%/time [3, 6] | further results |
| --- | --- | --- | --- | --- | --- | --- | --- |
| N[C@H](CSC[C@H]1O[C@@H]2O[C@H]3[C@H](O)[C@@H](O)[C@@H](O[C@H]4[C@H](O)[C@@H](O)[C@@H](O[C@H]5[C@H](O)[C@@H](O)[C@@H](O[C@H]6[C@H](O)[C@@H](O)[C@@H](O[C@H]7[C@H](O)[C@@H](O)[C@@H](O[C@H]8[C@H](O)[C@@H](O)[C@@H](O[C@H]1[C@H](O)[C@H]2O)O[C@@H]8CSC[C@@H](N)C(=O)[O-])O[C@@H]7CSC[C@@H](N)C(=O)[O-])O[C@@H]6CSC[C@@H](N)C(=O)[O-])O[C@@H]5CSC[C@@H](N)C(=O)[O-])O[C@@H]4CSC[C@@H](N)C(=O)[O-])O[C@@H]3CSC[C@@H](N)C(=O)[O-])C(=O)[O-].[Na+].[Na+].[Na+].[Na+].[Na+].[Na+].[Na+] [CD-25, 6-per-deoxy-6-per-(α-D-glycinemethyl)thioether-β-cyclodextrin sodium salt] | normal | – | – | – | – | – | – |
| CC(C)(SC[C@H]1O[C@@H]2O[C@H]3[C@H](O)[C@@H](O)[C@@H](O[C@H]4[C@H](O)[C@@H](O)[C@@H](O[C@H]5[C@H](O)[C@@H](O)[C@@H](O[C@H]6[C@H](O)[C@@H](O)[C@@H](O[C@H]7[C@H](O)[C@@H](O)[C@@H](O[C@H]8[C@H](O)[C@@H](O)[C@@H](O[C@H]9[C@H](O)[C@@H](O)[C@@H](O[C@H]1[C@H](O)[C@H]2O)O[C@@H]9CSC(C)(C)[C@@H](N)C(=O)[O-])O[C@@H]8CSC(C)(C)[C@@H](N)C(=O)[O-])O[C@@H]7CSC(C)(C)[C@@H](N)C(=O)[O-])O[C@@H]6CSC(C)(C)[C@@H](N)C(=O)[O-])O[C@@H]5CSC(C)(C)[C@@H](N)C(=O)[O-])O[C@@H]4CSC(C)(C)[C@@H](N)C(=O)[O-])O[C@@H]3CSC(C)(C)[C@@H](N)C(=O)[O-])[C@@H](N)C(=O)[O-].[Na+].[Na+].[Na+].[Na+].[Na+].[Na+].[Na+].[Na+] [CD-20, 6-per-deoxy-6-per-(α-D-amino acid dimethyl)sulfinyl-γ-cyclodextrin sodium salt] | – | – | – | – | – | – | result description (toxic reactions) (small mice [2]): normal |
| 6-per-deoxy-6-per-(N-ethyl-D-cysteine)thioether-β-cyclodextrin [CD-28] | – | – | – | – | – | – | T1 recovering to 25%/time [3, 5]: 8.25 min; T1 recovering to 50%/time [3, 5]: 12.25 min; T1 recovering to 75%/time [3, 5]: 15.00 min; TOF recovering to 50%/time [3, 5]: 12.75 min; TOF recovering to 75%/time [3, 5]: 16.25 min |
| 6-per-deoxy-6-per-(α-L-glycine ethyl)thioether-γ-cyclodextrin [CD-16] | – | 2.25 min | 3.50 min | 8.50 min | 3.50 min | 5.75 min | – |
| O=C(O)CCSC[C@H]1O[C@@H]2O[C@H]3[C@H](O)[C@@H](O)[C@@H](O[C@H]4[C@H](O)[C@@H](O)[C@@H](O[C@H]5[C@H](O)[C@@H](O)[C@@H](O[C@H]6[C@H](O)[C@@H](O)[C@@H](O[C@H]7[C@H](O)[C@@H](O)[C@@H](O[C@H]8[C@H](O)[C@@H](O)[C@@H](O[C@H]9[C@H](O)[C@@H](O)[C@@H](O[C@H]1[C@H](O)[C@H]2O)O[C@@H]9CSCCC(=O)O)O[C@@H]8CSCCC(=O)O)O[C@@H]7CSCCC(=O)O)O[C@@H]6CSCCC(=O)O)O[C@@H]5CSCCC(=O)O)O[C@@H]4CSCCC(=O)O)O[C@@H]3CSCCC(=O)O [Bridion, sugammadex] | – | – | – | – | – | – | maximal safe dose (small mice [4]): 2000 mg/kg |
| CC(=O)NC(CSC[C@H]1O[C@@H]2O[C@H]3[C@H](O)[C@@H](O)[C@@H](O[C@H]4[C@H](O)[C@@H](O)[C@@H](O[C@H]5[C@H](O)[C@@H](O)[C@@H](O[C@H]6[C@H](O)[C@@H](O)[C@@H](O[C@H]7[C@H](O)[C@@H](O)[C@@H](O[C@H]8[C@H](O)[C@@H](O)[C@@H](O[C@H]9[C@H](O)[C@@H](O)[C@@H](O[C@H]1[C@H](O)[C@H]2O)O[C@@H]9CSCC(NC(C)=O)C(=O)O)O[C@@H]8CSCC(NC(C)=O)C(=O)O)O[C@@H]7CSCC(NC(C)=O)C(=O)O)O[C@@H]6CSCC(NC(C)=O)C(=O)O)O[C@@H]5CSCC(NC(C)=O)C(=O)O)O[C@@H]4CSCC(NC(C)=O)C(=O)O)O[C@@H]3CSCC(NC(C)=O)C(=O)O)C(=O)O (stereo partly drawn) [CD-8, 6-per-deoxy-6-per-(N-acetylglycinemethyl)thioether-γ-cyclodextrin] | – | – | 2.75 min | 4.25 min | 2.50 min | 3.50 min | – |
| N[C@@H](CSC[C@H]1O[C@@H]2O[C@H]3[C@H](O)[C@@H](O)[C@@H](O[C@H]4[C@H](O)[C@@H](O)[C@@H](O[C@H]5[C@H](O)[C@@H](O)[C@@H](O[C@H]6[C@H](O)[C@@H](O)[C@@H](O[C@H]7[C@H](O)[C@@H](O)[C@@H](O[C@H]8[C@H](O)[C@@H](O)[C@@H](O[C@H]9[C@H](O)[C@@H](O)[C@@H](O[C@H]1[C@H](O)[C@H]2O)O[C@@H]9CSC[C@H](N)C(=O)[O-])O[C@@H]8CSC[C@H](N)C(=O)[O-])O[C@@H]7CSC[C@H](N)C(=O)[O-])O[C@@H]6CSC[C@H](N)C(=O)[O-])O[C@@H]5CSC[C@H](N)C(=O)[O-])O[C@@H]4CSC[C@H](N)C(=O)[O-])O[C@@H]3CSC[C@H](N)C(=O)[O-])C(=O)[O-].[Na+].[Na+].[Na+].[Na+].[Na+].[Na+].[Na+].[Na+] [CD-7, 6-per-deoxy-6-per-(α-L-glycinemethyl)thioether-γ-cyclodextrin sodium salt] | normal | 1.25 min | 1.50 min | 2.75 min | 1.25 min | 1.50 min | – |
| CC(=O)NC(CSC[C@H]1O[C@@H]2O[C@H]3[C@H](O)[C@@H](O)[C@@H](O[C@H]4[C@H](O)[C@@H](O)[C@@H](O[C@H]5[C@H](O)[C@@H](O)[C@@H](O[C@H]6[C@H](O)[C@@H](O)[C@@H](O[C@H]7[C@H](O)[C@@H](O)[C@@H](O[C@H]8[C@H](O)[C@@H](O)[C@@H](O[C@H]9[C@H](O)[C@@H](O)[C@@H](O[C@H]1[C@H](O)[C@H]2O)O[C@@H]9CSCC(NC(C)=O)C(=O)[O-])O[C@@H]8CSCC(NC(C)=O)C(=O)[O-])O[C@@H]7CSCC(NC(C)=O)C(=O)[O-])O[C@@H]6CSCC(NC(C)=O)C(=O)[O-])O[C@@H]5CSCC(NC(C)=O)C(=O)[O-])O[C@@H]4CSCC(NC(C)=O)C(=O)[O-])O[C@@H]3CSCC(NC(C)=O)C(=O)[O-])C(=O)[O-].[Na+].[Na+].[Na+].[Na+].[Na+].[Na+].[Na+].[Na+] (stereo partly drawn) [CD-9, 6-per-deoxy-6-per-(N-acetylglycinemethyl)thioether-γ-cyclodextrin sodium salt] | normal | 1.25 min | 1.75 min | – | 1.50 min | 3.25 min | – |
| 6-per-deoxy-6-per-(N-methyl-D-cysteine)thioether-β-cyclodextrin sodium salt [CD-27] | – | 8.25 min | 11.25 min | 16.00 min | 8.25 min | 10.75 min | – |
| N[C@@H](CCSC[C@H]1O[C@@H]2O[C@H]3[C@H](O)[C@@H](O)[C@@H](O[C@H]4[C@H](O)[C@@H](O)[C@@H](O[C@H]5[C@H](O)[C@@H](O)[C@@H](O[C@H]6[C@H](O)[C@@H](O)[C@@H](O[C@H]7[C@H](O)[C@@H](O)[C@@H](O[C@H]8[C@H](O)[C@@H](O)[C@@H](O[C@H]9[C@H](O)[C@@H](O)[C@@H](O[C@H]1[C@H](O)[C@H]2O)O[C@@H]9CSCC[C@H](N)C(=O)[O-])O[C@@H]8CSCC[C@H](N)C(=O)[O-])O[C@@H]7CSCC[C@H](N)C(=O)[O-])O[C@@H]6CSCC[C@H](N)C(=O)[O-])O[C@@H]5CSCC[C@H](N)C(=O)[O-])O[C@@H]4CSCC[C@H](N)C(=O)[O-])O[C@@H]3CSCC[C@H](N)C(=O)[O-])C(=O)[O-].[Na+].[Na+].[Na+].[Na+].[Na+].[Na+].[Na+].[Na+] [CD-17, 6-per-deoxy-6-per-(α-L-amino acid ethyl)thioether-γ-cyclodextrin sodium salt] | normal | – | – | – | – | – | T1 recovering to 25%/time [3, 5]: 3.00 min; T1 recovering to 50%/time [3, 5]: 5.25 min; T1 recovering to 75%/time [3, 5]: 7.75 min; TOF recovering to 50%/time [3, 5]: 3.00 min; TOF recovering to 75%/time [3, 5]: 6.25 min |
| 6-per-deoxy-6-per-(N-ethyl-D-cysteine)thioether-β-cyclodextrin sodium salt [CD-29] | – | 6.75 min | 8.50 min | 9.25 min | 6.50 min | 8.25 min | – |
| 6-per-deoxy-6-per-(α-L-glycine methyl)sulfinyl-γ-cyclodextrin [CD-5] | – | 3.50 min | 4.25 min | 8.25 min | 4.75 min | 7.25 min | – |
| 6-per-deoxy-6-per-(N-methyl-D-cysteine)thioether-β-cyclodextrin [CD-26] | – | – | – | – | – | – | T1 recovering to 25%/time [3, 5]: 7.75 min; T1 recovering to 50%/time [3, 5]: 12.25 min; T1 recovering to 75%/time [3, 5]: 16.00 min; TOF recovering to 50%/time [3, 5]: 8.00 min; TOF recovering to 75%/time [3, 5]: 11.75 min |
